Measurements as given in paper PMC5832243, “The importance of negative determinants as modulators of CK2 targeting. The lesson of Akt2 S131” (PLoS ONE, 2018).

Columns and labels:
Assay type in all cases: biochemical
recombinant CK2 α2β2 = target: T1, recombinant CK2 α2β2 (Homo sapiens, UniProt P67870+P68400); experiment: CK2 kinase assay, phosphorylation of synthetic peptides (33P, phosphocellulose filters); settings: for Phosphorylation by CK2: summary class of level of phosphorylation by CK2 (Table 4); for Phosphorylation by CK2, time course (in words): 0-120 min incubation with CK2 (Fig 1A); for Effect of residue replacement in the Akt2 peptide on phosphorylation by CK2 (in words): 10 min with CK2, % of cpm of Akt1 wt peptide, means of 4 experiments (Fig 2A)
T1 construct: made in house
T1 sequence (P68400 whole entry): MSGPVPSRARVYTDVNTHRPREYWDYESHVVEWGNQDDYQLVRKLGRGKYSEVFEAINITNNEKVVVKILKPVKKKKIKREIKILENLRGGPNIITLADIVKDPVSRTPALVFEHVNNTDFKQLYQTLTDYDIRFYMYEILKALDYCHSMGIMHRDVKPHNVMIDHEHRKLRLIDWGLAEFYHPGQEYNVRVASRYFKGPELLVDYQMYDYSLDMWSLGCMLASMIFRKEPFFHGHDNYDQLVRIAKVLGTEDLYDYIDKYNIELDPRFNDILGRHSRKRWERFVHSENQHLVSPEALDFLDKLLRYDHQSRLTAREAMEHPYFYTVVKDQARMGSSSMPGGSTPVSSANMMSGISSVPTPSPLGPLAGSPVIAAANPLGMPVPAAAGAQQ
T1 sequence (P67870 whole entry partner): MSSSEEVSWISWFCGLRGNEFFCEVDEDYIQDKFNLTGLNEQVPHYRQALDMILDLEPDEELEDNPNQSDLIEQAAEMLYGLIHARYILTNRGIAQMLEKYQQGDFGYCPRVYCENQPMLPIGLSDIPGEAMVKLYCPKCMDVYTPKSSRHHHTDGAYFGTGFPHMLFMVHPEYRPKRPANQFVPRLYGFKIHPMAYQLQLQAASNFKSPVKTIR
Experimental: Recombinant CK2α and CK2 α2β2 were expressed, purified and kindly donated by Dr. Stefania Sarno (Padova, Italy) and Andrea Venerando (Padova, Italy).
Phosphorylation of synthetic peptides was performed with recombinant CK2 α2β2 (0.025 μg) incubated at 30°C in a final volume of 20 μl containing 50 mM Tris/HCl (pH 7.5), 100 mM NaCl, 10 mM MgCl2, the indicated concentrations of peptides, and 20 μM [γ^33P-ATP] (5000–10000 cpm/pmol). Assays were stopped by spotting onto phosphocellulose filters. Filters were washed four times in 0.5% orthophosphoric acid before counting.

[1] = tested on: Recombinant human PLK3-GST; experiment: PLK3 kinase assay on substrate peptides (33P, phosphocellulose filters); settings: 1mM peptide, 1.5 μg PLK3, 10 min, 37°C, 20 μM [γ-33P]ATP; range according to the specific radioactivity; no-peptide control 2800-9000 cpm
Experimental: Recombinant human PLK3-GST (Polo-like kinase3 - Glutathione S-transferase), cloned in PGEX-4T1 vector, was produced in BL21 cells and purified by glutathione-Sepharose affinity chromatography, eluted by an elution buffer composed of 50mM Hepes, pH 8.0 and 20mM reduced glutathione. Purity was assessed by SDS-PAGE and Comassie blue staining.
1.5 μg of purified recombinant-PLK3 were incubated with the substrate peptides for 10 min at 37°C in 20 μl of kinase assay buffer containing 20 mM Tris-HCl pH 7.5, 10 mM MgCl2, 5mM DTT (dithiothreitol), 20 μM [γ-^33P]ATP (2000-6000 cpm/pmol). Assays were stopped by spotting onto phosphocellulose filters. Filters were washed four times in 0.5% orthophosphoric acid before scintillation counting.

CK2 = experiment: Phospho-aminoacid determination after CK2 phosphorylation (acid hydrolysis, high-voltage paper electrophoresis); settings: 2 mM peptide, 20 or 120 min with CK2; only faint traces of phospho-threonine (Fig 2C)
Experimental: For the identification of the amino acids phosphorylated by CK2 in Akt2 peptide, after phosphorylation samples were hydrolyzed by incubation for 4 h at 110°C in 6 N HCl, then subjected to high-voltage paper electrophoresis at pH 1.9 for 2.5 h, in the presence of nonradioactive phospho-amino acids, as migration reference. Radioactivity was detected by digital autoradiography (Cyclone plus storage phosphor system, PerkinElmer), while migration of standard references was detected by ninhydrin staining.

| Substance | Phosphorylation by CK2 (recombinant CK2 α2β2) | Effect of residue replacement in the Akt2 peptide on phosphorylation by CK2 (in words) (recombinant CK2 α2β2) | further results |
| --- | --- | --- | --- |
| R3GSPSDNSTAEEMEV [Akt1GT, Akt1 peptide with G at n+1 replaced by T] | - (or not (-)) | – | – |
| R3GSPSDSSTTEEMEV [Akt2(wt)] | - (or not (-)) | – | cpm detected in PLK3 assay [1]: 50000-150000 cpm; Phospho-aminoacid accounting for phosphorylation by CK2 (CK2): entirely accounted for by phospho-serine; Phosphorylation by CK2, time course (in words) (recombinant CK2 α2β2): negligible extent; drop in phosphorylation efficiency in comparison to the Akt1 peptide (recombinant CK2 α2β2; from Km and Vmax of Fig 1B): ~10 fold |
| R3GSPSDSSTAEEMEV [Akt2A, Akt2 peptide with T at n+2 replaced by A] | - (or not (-)) | no beneficial effect | – |
| R3GSPSDSSSTEEMEV [Akt2TS, Akt2 peptide with T at n+1 replaced by S] | + | – | – |
| R3GSPSDSSGTEEMEV [Akt2TG, Akt2 peptide with T at n+1 replaced by G] | + | comparable to that of the Akt1 peptide | – |
| R3GSPSDNSGAEEMEV [Akt1(wt)] | + | – | Phosphorylation by CK2, time course (in words) (recombinant CK2 α2β2): good substrate |
| R3GSPSDNSTTEEMEV [Akt2N, Akt2 peptide with S at n-1 replaced by N] | - (or not (-)) | no beneficial effect | – |
| R3GSPSDSSATEEMEV [Akt2TA, Akt2 peptide with T at n+1 replaced by A] | + | – | – |
